Measurements reported in article PMC12135508 (Antimicrobial Agents and Chemotherapy, 2025).
Where two headings read alike, the source gives them in different places. Marks after values point to notes of the source that are not given here.

Legend:
[1] = test system: E. coli TOP10F´ pMBLe/KPC-2; experiment: MIC by broth microdilution, KPC-2-producing recombinant clone; type: cell-based; details: Escherichia coli, 50 µM IPTG, combinations given as β-lactam/inhibitor, read-out: Minimum inhibitory concentration
Description: (§1) Ligation mixtures were transformed in chemically competent E. coli TOP10F´ cells, and recombinant clones were selected in Lysogeny broth (LB) agar supplemented with 20 µg/mL gentamicin or 30 µg/mL kanamycin, depending on whether the constructions were obtained in pMBLe or pET24a(+) vectors, respectively. Recombinant plasmids of the selected clones were extracted and sequenced to verify the identity of bla genes and their proper insertion.
(§2) Minimum inhibitory concentrations (MICs) of different β-lactams and combinations with β-lactamase inhibitors were determined by an adaptation of the broth microdilution method by the CLSI ([49]), as follows. As we used E. coli recombinant clones harboring pMBLe/bla constructions, where protein production is regulated by isopropyl-β-D-thiogalactoside (IPTG) induction ([47]), antimicrobial susceptibility assays were performed using Mueller Hinton broth supplemented with 50 µM IPTG.

E. coli TOP10F´ = experiment: microbe, parasite or virus in culture; type: cell-based; details: Escherichia coli, read-out: Minimum inhibitory concentration
From the text: (§3) The KPC-2 gene was recovered from a clinical Klebsiella pneumoniae strain previously characterized in our laboratory ([46]). E. coli TOP10 F´ (Invitrogen, USA) and E. coli BL21(DE3) (Novagen, Germany) were used as hosts for transformation experiments, to obtain recombinant clones for antimicrobial susceptibility and overexpression assays, respectively. Escherichia coli ATCC 25922 and ATCC 35218 were used as control strains for antimicrobial susceptibility assays.
as §2, with “IPTG. Also, as control strains we included the E. coli Top10F’ (used as recipient strain in transformation assays), and the same strain transformed with the empty vector pMBLe, to have a comparison under the same isogenic background.” for “IPTG.”

[2] = test system: E. coli TOP10F´ pMBLe/KPC-14; experiment: MIC by broth microdilution, KPC-14-producing recombinant clone; type: cell-based, Escherichia coli; details: for MIC: Escherichia coli, E. coli TOP10F´ pMBLe/KPC-14, 50 µM IPTG, combinations given as β-lactam/inhibitor, read-out: Minimum inhibitory concentration; for MIC interpretation in KPC-14 recombinant clone: recombinant clone harboring KPC-14
Description: as §1, §2

KPC-14 [3] = target: T1, KPC-14 (Klebsiella pneumoniae, UniProt Q9F663, DEL241-242); experiment: Steady-state kinetics of β-lactam hydrolysis by KPC-14; type: biochemical; details: for kcat / Km: KPC-14
T1 construct: amplify the entire blaKPC-14 gene with the cloning primers; made in house; host or cells: E. coli BL21(DE3), pET24a(+)
From the text: (Eq. 1) v=(Vmax×[S]) / (Km+[S])
(Eq. 2) KI=KI obs / (1+[NCF]/KM(NCF))

KPC-14 [4] = test system: KPC-14; set-up: method as in earlier work; details: ref 20 Oueslati et al., cited from earlier work
KPC-2 [5] = details: ceftazidime as reporter substrate, ref 20 Oueslati et al.; cited from earlier work
E. coli TOP10F´/pMBLe = experiment: MIC by broth microdilution, empty-vector control clone; type: cell-based; details: Escherichia coli; E. coli TOP10F´ with empty vector pMBLe; 50 µM IPTG; combinations given as β-lactam/inhibitor; read-out: Minimum inhibitory concentration
From the text: as §3
as §2, with “IPTG. Also, as control strains we included the E. coli Top10F’ (used as recipient strain in transformation assays), and the same strain transformed with the empty vector pMBLe, to have a comparison under the same isogenic background.” for “IPTG.”

KPC-2 [6] = target: T2, KPC-2 (Klebsiella pneumoniae, UniProt Q9F663); experiment: Clavulanic acid inhibition and hydrolysis, KPC-2; type: biochemical
T2 construct: The complete blaKPC-2 gene was amplified from whole DNA; made in house; host or cells: E. coli BL21(DE3), pET24a(+)
Description: (§4) To assess if KPC-14 shares the same behavior, KI app and kinact values for clavulanic acid of both enzymes were determined as previously reported ([32], [33]). The initial velocity (V0) of clavulanic acid hydrolysis was monitored at 235 nm ([32]), mixing an inhibitor concentration five times the KM determined and 100 nM of enzyme. V0 obtained under this condition was considered the Vmax and was used to determine the kcat for clavulanic acid.

KPC-14 [7] = target: T1, KPC-14; experiment: Clavulanic acid inhibition and hydrolysis, KPC-14; type: biochemical
Description: as §4

[8] = test system: CO/N=C(\C(=O)N[C@@H]1C(=O)N2C(C(=O)O)=C(CSc3nc(=O)c(=O)[nH]n3C)CS[C@H]12)c1csc(N)n1; experiment: purified protein, by the assay type; details: other: KPC-2; determined with nitrocefin as reporter in competitive assays; pH 7.0
[9] = test system: CC(=O)OCC1=C(C(=O)O)N2C(=O)[C@@H](NC(=O)Cc3cccs3)[C@H]2SC1; experiment: purified protein, by the assay type; details: other: KPC-2, 50 mM sodium phosphate pH 7.0, room temperature
[10] = test system: C[C@@H](O)[C@H]1C(=O)N2C(C(=O)O)=C(S[C@@H]3CN[C@H](C(=O)N(C)C)C3)[C@H](C)[C@H]12; experiment: purified protein, by the assay type; details: other: KPC-2, 50 mM sodium phosphate pH 7.0, room temperature
[11] = test system: CC(C)(O/N=C(\C(=O)N[C@@H]1C(=O)N2C(C(=O)[O-])=C(C[n+]3ccccc3)CS[C@H]12)c1csc(N)n1)C(=O)O; experiment: purified protein, by the assay type; details: other: KPC-2; determined with nitrocefin as reporter in competitive assays; pH 7.0
[12] = test system: C[C@@H](O)[C@H]1C(=O)N2C(C(=O)O)=C(SCCN=CN)C[C@H]12; experiment: purified protein, by the assay type; details: other: KPC-2, 50 mM sodium phosphate pH 7.0, room temperature
[13] = test system: CO/N=C(\C(=O)N[C@@H]1C(=O)N2C(C(=O)[O-])=C(C[N+]3(C)CCCC3)CS[C@H]12)c1csc(N)n1; experiment: purified protein, by the assay type; details: other: KPC-2, 50 mM sodium phosphate pH 7.0, room temperature
[14] = test system: CCN1CCN(C(=O)N[C@@H](C(=O)N[C@@H]2C(=O)N3[C@@H]2SC(C)(C)[C@@H]3C(=O)O)c2ccccc2)C(=O)C1=O; experiment: purified protein, by the assay type; details: other: KPC-2, 50 mM sodium phosphate pH 7.0, room temperature
[15] = test system: CO/N=C(\C(=O)N[C@@H]1C(=O)N2C(C(=O)O)=C(COC(N)=O)CS[C@H]12)c1ccco1; experiment: purified protein, by the assay type; details: other: KPC-2, 50 mM sodium phosphate pH 7.0, room temperature
[16] = E. coli TOP10F´ recipient strain, Mueller Hinton broth + 50 µM IPTG, combinations given as β-lactam/inhibitor
[17] = 50 mM sodium phosphate pH 7.0, room temperature
[18] = determined with nitrocefin as reporter in competitive assays

T1 sequence (Q9F663 25-240, added parts left off, stated change not applied): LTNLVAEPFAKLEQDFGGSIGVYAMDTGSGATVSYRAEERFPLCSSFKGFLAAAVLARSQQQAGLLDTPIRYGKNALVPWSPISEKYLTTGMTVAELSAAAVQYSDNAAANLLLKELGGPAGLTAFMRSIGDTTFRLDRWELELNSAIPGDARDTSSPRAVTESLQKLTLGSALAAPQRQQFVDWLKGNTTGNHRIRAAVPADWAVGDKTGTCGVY
T2 sequence (Q9F663 25-293 limits assumed): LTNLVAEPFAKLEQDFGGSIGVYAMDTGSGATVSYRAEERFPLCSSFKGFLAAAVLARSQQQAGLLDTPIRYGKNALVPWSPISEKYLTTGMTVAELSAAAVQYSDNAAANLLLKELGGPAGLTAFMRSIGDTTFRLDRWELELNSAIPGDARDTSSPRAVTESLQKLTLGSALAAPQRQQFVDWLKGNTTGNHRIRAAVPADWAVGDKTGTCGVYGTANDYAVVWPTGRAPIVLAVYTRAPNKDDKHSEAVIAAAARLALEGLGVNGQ

CC1(C)S[C@@H]2[C@H](NC(=O)[C@H](N)c3ccccc3)C(=O)N2[C@H]1C(=O)O [Ampicillin]
MIC [1]: 1020 µg/mL
MIC (E. coli TOP10F´; [16]): 2 µg/mL
MIC [2]: 64 µg/mL
kcat/KM fold lower, KPC-14 vs KPC-2 (KPC-14 [3]): 24 fold
kcat (KPC-14 [3]): 0.83 ± 0.02 s⁻¹
Km (KPC-14 [3]; [17]): 95 ± 10 µM

NC(=O)[C@@H]1CC[C@@H]2CN1C(=O)N2OS(=O)(=O)O [Avibactam, avibactam]
IC50 (KPC-14 [4]; KPC-14, ceftazidime as reporter substrate): 107 nM

C[C@H]1[C@H](NC(=O)/C(=N\OC(C)(C)C(=O)O)c2csc(N)n2)C(=O)N1S(=O)(=O)O [Aztreonam]
MIC (E. coli TOP10F´; [16]): ≤ 0.25 µg/mL
MIC (E. coli TOP10F´/pMBLe): ≤ 0.25 µg/mL

CO/N=C(\C(=O)N[C@@H]1C(=O)N2C(C(=O)[O-])=C(C[N+]3(C)CCCC3)CS[C@H]12)c1csc(N)n1 [Cefepime]
MIC [1]: 1 µg/mL
MIC (E. coli TOP10F´; [16]): ≤ 0.25 µg/mL
MIC (E. coli TOP10F´/pMBLe): ≤ 0.25 µg/mL
MIC [2]: 1 µg/mL
hydrolytic efficiency (kcat/KM) fold increase, KPC-14 vs KPC-2 (KPC-14 [3]): 3 fold
kcat (KPC-14 [3]): 0.61 ± 0.03 s⁻¹
Km (KPC-14 [3]; [17]): 7 ± 1 µM

CC(C)(O/N=C(\C(=O)N[C@@H]1C(=O)N2C(C(=O)[O-])=C(C[n+]3ccccc3)CS[C@H]12)c1csc(N)n1)C(=O)O [Ceftazidime]
MIC [1]: 2 µg/mL
MIC (E. coli TOP10F´; [16]): 0.12 µg/mL
MIC [2]: 32 µg/mL

CO/N=C(\C(=O)N[C@@H]1C(=O)N2C(C(=O)O)=C(CSc3nc(=O)c(=O)[nH]n3C)CS[C@H]12)c1csc(N)n1 [Ceftriaxone]
MIC (E. coli TOP10F´): ≤ 0.25 µg/mL
MIC (E. coli TOP10F´/pMBLe): ≤ 0.25 µg/mL

CC(=O)OCC1=C(C(=O)O)N2C(=O)[C@@H](NC(=O)Cc3cccs3)[C@H]2SC1 [Cephalothin]
MIC [1]: 256 µg/mL
MIC (E. coli TOP10F´; [16]): 8 µg/mL
MIC [2]: 64 µg/mL

C[C@@H](O)[C@H]1C(=O)N2C(C(=O)O)=C(SCCN=CN)C[C@H]12 [Imipenem]
MIC [1]: 2 µg/mL
MIC (E. coli TOP10F´; [16]): 0.12 µg/mL
MIC (E. coli TOP10F´/pMBLe): 0.12 µg/mL
turnover (kcat) fold reduction, KPC-14 (KPC-14 [4]): 1,000 fold
MIC [2]: 0.25 µg/mL
MIC interpretation in KPC-14 recombinant clone [2]: within the susceptibility range
kcat/KM fold lower, KPC-14 vs KPC-2 (KPC-14 [3]): 11 fold
kcat (KPC-14 [3]): (5.93 ± 0.02) × 10^−3 s^−1
Km (KPC-14 [3]; [18]): 0.55 ± 0.02 µM
turnover (kcat) fold decrease, KPC-14 vs KPC-2 (KPC-14 [3]; this work): 2,500 fold

C[C@@H](O)[C@H]1C(=O)N2C(C(=O)O)=C(S[C@@H]3CN[C@H](C(=O)N(C)C)C3)[C@H](C)[C@H]12 [Meropenem]
MIC [1]: 1 µg/mL
MIC (E. coli TOP10F´; [16]): ≤ 0.03 µg/mL
MIC (E. coli TOP10F´/pMBLe): ≤ 0.03 µg/mL
MIC [2]: ≤ 0.03 µg/mL
MIC interpretation in KPC-14 recombinant clone [2]: within the susceptibility range
kcat/KM fold lower, KPC-14 vs KPC-2 (KPC-14 [3]): 1,000 fold
kcat (KPC-14 [3]): (8.8000 ± 0.0001) × 10^−4 s^−1
Km (KPC-14 [3]; [18]): 10 ± 1 µM

O=C(O)[C@H]1/C(=C/CO)O[C@@H]2CC(=O)N21 [clavulanic acid]
inhibition of nitrocefin hydrolysis at 300 µM inhibitor (KPC-2 [6]; 300 µM clavulanic acid): residual hydrolytic activity
kcat (turnover of inhibitor hydrolysis) (KPC-2 [6]; 235 nm, inhibitor five times above KM, 100 nM enzyme): 11.60 ± 0.01 s⁻¹
KM (Ki app expressed as KM) (KPC-2 [6]; nitrocefin competition): 80000 ± 8000 nM
hydrolysis of inhibitor monitored at 235 nm (KPC-14 [7]; inhibitor five times above Ki app, 100 nM enzyme): No hydrolytic activity was detected
Ki (KPC-14 [7]; nitrocefin competition, read-out: Ki app): 8500 ± 1100 nM
concentration sufficient for complete inhibition of enzyme activity (KPC-14 [7]; nitrocefin hydrolysis time courses): 16 µM

KPC-2 (Klebsiella pneumoniae)
Km [8]: 267 ± 29^a µM
kcat [8]: 52 ± 7 s⁻¹
kcat/Km [8]: 194000 ± 6000 M⁻¹ s⁻¹
Km [9]: 159 ± 15 µM
kcat [9]: 56 ± 2 s⁻¹
kcat/Km [9]: 360000 ± 40000 M⁻¹ s⁻¹
Km [10]: 31 ± 2 µM
kcat [10]: 2.85 ± 0.06 s⁻¹
kcat/Km [10]: 91000 ± 6000 M⁻¹ s⁻¹
Km [11]: 1,319 ± 145^a µM
kcat [11]: 0.9 ± 0.1 s⁻¹
kcat/Km [11]: 830 ± 40 M⁻¹ s⁻¹
Km [12]: 120 ± 9 µM
kcat [12]: 15 ± 0.4 s⁻¹
kcat/Km [12]: 120000 ± 10000 M⁻¹ s⁻¹
Km [13]: 59 ± 5 µM
kcat [13]: 1.31 ± 0.04 s⁻¹
Km [14]: 97 ± 12 µM
kcat [14]: 29 ± 1 s⁻¹
kcat/Km [14]: 300000 ± 40000 M⁻¹ s⁻¹
Km [15]: 319 ± 48 µM
kcat [15]: 85 ± 8 s⁻¹
kcat/Km [15]: 270000 ± 50000 M⁻¹ s⁻¹
